Test: In vitro dissolution test, microcentrifuge method, in model fasted duodenal solution (MFDS)
Type: physicochemical
Conditions: summary Table 48
Experimental: The compositions comprising the CETP inhibitor and concentration-enhancing polymer provide enhanced concentration of the dissolved CETP inhibitor in in vitro dissolution tests. It has been determined that enhanced drug concentration in in vitro dissolution tests in Model Fasted Duodenal (MFD) solution or Phosphate Buffered Saline (PBS) is a good indicator of in vivo performance and bioavailability. An appropriate PBS solution is an aqueous solution comprising 20 mM sodium phosphate (Na2HPO4), 47 mM potassium phosphate (KH2PO4), 87 mM NaCl, and 0.2 mM KCl, adjusted to pH 6.5 with NaOH. An appropriate MFD solution is the same PBS solution wherein additionally is present 7.3 mM sodium taurocholic acid and 1.4 mM of 1-palmitoyl-2-oleyl-sn-glycero-3-phosphocholine. In particular, a composition of the present invention can be dissolution-tested by adding it to MFD or PBS solution and agitating to promote dissolution.
A typical in vitro test to evaluate enhanced drug concentration in aqueous solution can be conducted by (1) adding with agitation a sufficient quantity of control composition, typically the CETP inhibitor alone, to the in vitro test medium, typically MFD or PBS solution, to achieve equilibrium concentration of the CETP inhibitor; (2) adding with agitation a sufficient quantity of test composition (e.g., the CETP inhibitor and polymer) in an equivalent test medium, such that if all the CETP inhibitor dissolved, the theoretical concentration of CETP inhibitor would exceed the equilibrium concentration of the CETP inhibitor by a factor of at least 10, and preferably a factor of at least 100; and (3) comparing the measured MDC and/or aqueous concentration versus time AUC of the test composition in the test medium with the equilibrium concentration, and/or the aqueous concentration versus time AUC of the control composition. In conducting such a dissolution test, the amount of test composition or control composition used is an amount such that if all of the CETP inhibitor dissolved the CETP inhibitor concentration would be at least 10-fold and preferably at least 100-fold that of the equilibrium concentration. Indeed, for some extremely insoluble CETP inhibitors, in order to identify the MDC achieved it may be necessary to use an amount of test composition such that if all of the CETP inhibitor dissolved, the CETP inhibitor concentration would be 10,000-fold or even more, that of the equilibrium concentration of the CETP inhibitor.
The concentration of dissolved CETP inhibitor is typically measured as a function of time by sampling the test medium and plotting CETP inhibitor concentration in the test medium vs. time so that the MDC can be ascertained. The MDC is taken to be the maximum value of dissolved CETP inhibitor measured over the duration of the test.
To avoid large CETP inhibitor particulates which would give an erroneous determination, the test solution is either filtered or centrifuged. “Dissolved CETP inhibitor” is typically taken as that material that either passes a 0.45 μm syringe filter or, alternatively, the material that remains in the supernatant following centrifugation. Filtration can be conducted using a 13 mm, 0.45 μm polyvinylidine difluoride syringe filter sold by Scientific Resources under the trademark TITAN®. Centrifugation is typically carried out in a polypropylene microcentrifuge tube by centrifuging at 13,000 G for 60 seconds. Other similar filtration or centrifugation methods can be employed and useful results obtained. For example, using other types of microfilters may yield values somewhat higher or lower (±10-40%) than that obtained with the filter specified above but will still allow identification of preferred dispersions. […]

AUC90 (AUC through 90 min): <88 min-μg/ml
Cmax, 90 (maximum Drug 2 concentration through 90 min): <1000 ng/mL
Compound: CCOC(=O)N1c2ccc(C(F)(F)F)cc2[C@@H](N(Cc2cc(C(F)(F)F)cc(C(F)(F)F)c2)C(=O)OC)C[C@H]1CC [Control 2, [2R,4S]4-[(3,5-bis-trifluoromethyl-benzyl)-methoxycarbonyl-amino]-2-ethyl-6-trifluoromethyl-3,4-dihydro-2H-quinoline-1-carboxylic acid ethyl ester]

From patent US8389011B2, “Pharmaceutical compositions of cholesteryl ester transfer protein inhibitors” (Bend Research, Inc., priority 2000, dated 2013)
